Experimental data: patent US20180000085A1, “USE OF PICOLINAMIDE COMPOUNDS WITH FUNGICIDAL ACTIVITY” (DOW AGROSCIENCES LLC, priority 2014, published 2018)

Tests used:
Assay type in all cases: in vivo
[1] = tested on: Zymoseptoria tritici; assay: Leaf blotch of wheat (SEPTTR) disease control on wheat seedlings; design: key to SEPTTR 1DP, HV activity at 100 ppm (% control rating) / SEPTTR 3DC, HV activity at 100 ppm (% control rating) / SEPTTR disease control, 1DP / SEPTTR disease control, 3DC / SEPTTR 1DP disease control rating, HV activity / SEPTTR 3DC disease control rating, HV activity / SEPTTR 3DC, LV activity at 125.1 g/H (% Control rating) / SEPTTR 1DP, LV activity at 125.1 g/H (% Control rating) / SEPTTR 1DP disease control rating, LV activity at 125.1 g/H / SEPTTR 3DC disease control rating, LV activity at 125.1 g/H / SEPTTR 3DC disease control rating, HV activity at 100 ppm / SEPTTR 1DP disease control rating, HV activity at 100 ppm / HV activity at 100 ppm SEPTTR 3DC (disease control rating) / HV activity at 100 ppm SEPTTR 1DP (disease control rating) / LV activity at 125.1 g/H SEPTTR 1DP (disease control rating) / LV activity at 125.1 g/H SEPTTR 3DC (disease control rating): A: > 80; B: ≤ 80; C: Not Tested; D: No Activity Observed in the Reported Assay; conditions: for SEPTTR 1DP, LV activity at 125.1 g/H (% Control rating) / SEPTTR 3DC, LV activity at 125.1 g/H (% Control rating) / SEPTTR 1DP disease control rating, LV activity at 125.1 g/H / SEPTTR 3DC disease control rating, LV activity at 125.1 g/H: low volume application; for SEPTTR 1DP disease control rating, LV activity at 125.1 g/H: 1 day protectant; for SEPTTR 3DC disease control rating, LV activity at 125.1 g/H: 3 day curative
[2] = tested on: Puccinia triticina; assay: Wheat brown rust (PUCCRT) disease control on wheat seedlings; conditions: for PUCCRT 1DP, LV activity at 125.1 g/H (% Control rating) / PUCCRT 3DC, LV activity at 125.1 g/H (% Control rating) / PUCCRT 1DP disease control rating, LV activity at 125.1 g/H / PUCCRT 3DC disease control rating, LV activity at 125.1 g/H: low volume application; for PUCCRT 1DP disease control rating, LV activity at 125.1 g/H: 1 day protectant; for PUCCRT 3DC disease control rating, LV activity at 125.1 g/H: 3 day curative
[3] = tested on: Phakopsora pachyrhizi; assay: Asian soybean rust (PHAKPA) disease control; design: key: A: > 80; B: ≤ 80; C: Not Tested; D: No Activity Observed in the Reported Assay; conditions: 25 ppm; for PHAKPA disease control, 1DP: 1 Day Protectant; for PHAKPA disease control, 3DC: 3 Day Curative

Compound	SEPTTR 1DP, LV activity at 125.1 g/H (% Control rating) ([1]; 1 Day Protectant)	SEPTTR 3DC, LV activity at 125.1 g/H (% Control rating) ([1]; 3 Day Curative)	PUCCRT 1DP, LV activity at 125.1 g/H (% Control rating) ([2]; 1 Day Protectant)	PUCCRT 3DC, LV activity at 125.1 g/H (% Control rating) ([2]; 3 Day Curative)	PHAKPA disease control, 1DP [3]	PHAKPA disease control, 3DC [3]	SEPTTR 1DP disease control rating, LV activity at 125.1 g/H [1]	SEPTTR 3DC disease control rating, LV activity at 125.1 g/H [1]	PUCCRT 1DP disease control rating, LV activity at 125.1 g/H [2]	PUCCRT 3DC disease control rating, LV activity at 125.1 g/H [2]	SEPTTR 1DP disease control rating, HV activity ([1]; HV application at 100 ppm, 1 Day Protectant, wheat leaf blotch)	SEPTTR 3DC disease control rating, HV activity ([1]; HV application at 100 ppm, 3 Day Curative, wheat leaf blotch)	PUCCRT 1DP disease control rating, HV activity ([2]; HV application at 100 ppm, 1 Day Protectant, wheat brown rust)	PUCCRT 3DC disease control rating, HV activity ([2]; HV application at 100 ppm, 3 Day Curative, wheat brown rust)
CCC(CC)[C@@H](OCC1CC1)[C@H](C)OC(=O)[C@H](C)NC(=O)c1nccc(OC)c1OCOC(C)=O [Cmpd 553]	B (≤ 80)	A (> 80)	A (> 80)	A (> 80)	A (> 80)	A (> 80)								
COc1ccnc(C(=O)NC(C)C(=O)OC(C)C(OCC(C)C)C2CCCC2)c1OCOC(C)=O (stereo not drawn) [Cmpd 915]					A (> 80)	B (≤ 80)	B (≤ 80)	A (> 80)	A (> 80)	A (> 80)				
CCC(CC)[C@@H](Oc1ccccc1)[C@H](C)OC(=O)CNC(=O)c1nccc(OC)c1OC(C)=O [Cmpd 480]	B (≤ 80)	B (≤ 80)	A (> 80)	A (> 80)	B (≤ 80)	B (≤ 80)								
CCC(CC)[C@@H](Oc1ccc(Cl)cc1)[C@H](C)OC(=O)[C@H](C)NC(=O)c1nccc(OC)c1OCOC(C)=O [Cmpd 589]	A (> 80)	A (> 80)	A (> 80)	A (> 80)	A (> 80)	B (≤ 80)								
COc1ccnc(C(=O)N[C@@H](C)C(=O)O[C@@H](C)[C@H](Oc2cccc(F)c2)C(C)C)c1OCOC(C)=O [Cmpd 614]	B (≤ 80)	A (> 80)	A (> 80)	A (> 80)	A (> 80)	A (> 80)								
COc1ccnc(C(=O)N[C@@H](C)C(=O)O[C@@H](C)[C@H](Oc2ccc(F)cc2)C(C)C)c1OC(C)=O [Cmpd 626]	A (> 80)	A (> 80)	A (> 80)	A (> 80)	A (> 80)	B (≤ 80)								
COc1ccnc(C(=O)N[C@@H](C)C(=O)O[C@@H](C)[C@@H](OC)c2ccccc2)c1OCOC(C)=O [Cmpd 886]					B (≤ 80)	B (≤ 80)	D	A (> 80)	A (> 80)	A (> 80)				
C=CC(C)C(Oc1ccccc1)C(C)OC(=O)C(C)NC(=O)c1nccc(OC)c1OC(C)=O (stereo not drawn) [Cmpd 693]					A (> 80)	B (≤ 80)	B (≤ 80)	A (> 80)	A (> 80)	A (> 80)				
COc1ccnc(C(=O)N[C@@H](C)C(=O)O[C@@H](C)[C@H](Oc2ccccc2)C(C)C)c1O [Cmpd 304]					D	B (≤ 80)					A (> 80)	A (> 80)	A (> 80)	A (> 80)
CCC(CC)[C@@H](OCC(C)C)[C@H](C)OC(=O)[C@H](C)NC(=O)c1nccc(OC)c1OCOC(C)=O [Cmpd 554]	B (≤ 80)	A (> 80)	A (> 80)	A (> 80)	A (> 80)	B (≤ 80)								
COc1ccnc(C(=O)N[C@@H](C)C(=O)O[C@@H](C)[C@H](Oc2ccc(F)cc2)C2CCCC2)c1OC(C)=O [Cmpd 919]					A (> 80)	D	A (> 80)	A (> 80)	A (> 80)	A (> 80)				
COc1ccnc(C(=O)N[C@@H](C)C(=O)O[C@@H](C)[C@H](Oc2ccccc2)c2ccccc2)c1OC(C)=O [Cmpd 501]	A (> 80)	A (> 80)	A (> 80)	A (> 80)	B (≤ 80)	B (≤ 80)								
